For one assay, the target named is IRAK4 enzyme (Homo sapiens (Human), UniProt Q9NWZ3). Description: IRAK4 Biochemical Assay (TR-FRET, STK1 KinEASE). Put shortly: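 IRAK4 (0.75 nM) preincubated 15 min with compound and […] STK1 peptide, then started with 500 μM ATP in HEPES pH 7.0 buffer with MgCl2, DTT, BSA, NP-40; 120 min at room temperature.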
A general note: TR-FRET usually uses a lanthanide donor and a delayed reading to cut background.

Another assay relates to TNFα. Description: IRAK4 Monocyte TNFα Cell Based Assay. Also on record: species or system human. The essentials: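 Human monocytes (5,000/well) pretreated with compound 1 h at 37 °C (0.1% DMSO final), then stimulated with 50 pg/ml LPS for 4 h. Secreted TNFα measured by TR-FRET two-antibody detection after overnight incubation at room temperature; % control relative to unstimulated and LPS-stimulated wells.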

Setting [1] is: Homo sapiens, Monocyte, human monocytes, second part of Table 2, compounds 33-343, unit inferred, read-out: EC50 MONO TNF HTRF.
Setting [2] is: Homo sapiens, Monocyte, read-out: EC50 MONO TNF HTRF.
[3] abbreviates: compounds 1-32, read-out: IC50 HTRF.
Where [4] appears, read: Homo sapiens, Monocyte, human monocytes, LPS stimulated, compounds 1-32, read-out: EC50 TNF.
The mark [5] stands for this setting: second part of Table 2, compounds 33-343, unit inferred, read-out: IC50 IRAK4-HTBS.
Setting [6] is: human monocytes, second part of Table 2, compounds 33-343, unit inferred, read-out: EC50 MONO TNF HTRF.

pEC50, pIC50: −log10 of the molar value. Where two headings read alike, the source gives them in different places.

Among the data in US11046686B2, “Thiadiazole IRAK4 compounds” (Gilead Sciences, Inc., priority 2018, dated 2021) are IC50 and EC50 values, retold here.

IRAK4 enzyme, sequence (Q9NWZ3 whole entry): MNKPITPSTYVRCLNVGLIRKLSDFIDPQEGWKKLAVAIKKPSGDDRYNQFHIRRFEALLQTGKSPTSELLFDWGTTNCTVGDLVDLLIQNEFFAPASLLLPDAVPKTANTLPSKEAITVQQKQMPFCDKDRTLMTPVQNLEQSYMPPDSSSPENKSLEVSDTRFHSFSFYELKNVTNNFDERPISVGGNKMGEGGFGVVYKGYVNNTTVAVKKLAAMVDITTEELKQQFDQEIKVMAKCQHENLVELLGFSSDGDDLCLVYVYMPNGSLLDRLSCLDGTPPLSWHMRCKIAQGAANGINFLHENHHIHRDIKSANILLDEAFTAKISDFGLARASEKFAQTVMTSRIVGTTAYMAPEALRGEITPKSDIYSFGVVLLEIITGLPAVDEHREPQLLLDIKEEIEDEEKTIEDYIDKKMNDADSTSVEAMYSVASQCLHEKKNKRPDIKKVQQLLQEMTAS

One may read the pIC50 as the negative decadic logarithm of the IC50, by convention in mol/L. The term pEC50 denotes the EC50 on a negative log10 scale, so that one unit is a factor of ten. As for `CC(=O)N[C@@H]1CCN(c2nnc(-c3cnc(-c4ccc5cc(C#N)cnn45)cc3NC(C)C)s2)C[C@@H]1F` [Compound 250, N-((3S,4R)-1-(5-(6-(3-cyanopyrrolo[1,2-b]pyridazin-7-yl)-4-(isopropylamino)pyridin-3-yl)-1,3,4-thiadiazol-2-yl)-3-fluoropiperidin-4-yl)acetamide], at IRAK4 enzyme, the pIC50 is 8.93. In addition, the pEC50 in the assay on TNFα (setting [1]) was 8.08.

With `CC(=O)N[C@H]1CC[C@H](c2nnc(-c3cnc(-c4ccc5cc(C#N)cnn45)cc3N[C@H](C)C#N)s2)CC1` [Example 316, N-((1R,4r)-4-(5-(4-(((R)-1-cyanoethyl)amino)-6-(3-cyanopyrrolo[1,2-b]pyridazin-7-yl)pyridin-3-yl)-1,3,4-thiadiazol-2-yl)cyclohexyl)acetamide], the pIC50 against IRAK4 enzyme was 9.23. The pEC50 with TNFα (setting [1]) was 8.28.

On to `CC(C)Nc1cc(-c2ccc3cc(C#N)cnn23)ncc1-c1nnc(N2CC[C@@H](O)C(F)(F)C2)s1` [Example 162, (R)-7-(5-(5-(3,3-difluoro-4-hydroxypiperidin-1-yl)-1,3,4-thiadiazol-2-yl)-4-(isopropylamino)pyridin-2-yl)pyrrolo[1,2-b]pyridazine-3-carbonitrile], for which, at IRAK4 enzyme, the pIC50 is 8.64. In addition, the pEC50 with TNFα (setting [1]) was 7.58.

With `CC(C)Nc1cc(-c2ccc3cc(C#N)cnn23)ncc1-c1nnc(C(=O)N2CCC[C@@H]2CO)s1` [Example 214, (R)-7-(5-(5-(2-(hydroxymethyl)pyrrolidine-1-carbonyl)-1,3,4-thiadiazol-2-yl)-4-(isopropylamino)pyridin-2-yl)pyrrolo[1,2-b]pyridazine-3-carbonitrile], the pIC50 against IRAK4 enzyme is 9.34. For the same molecule, the pEC50 with TNFα (setting [1]) is 7.48.

`CC(=O)N[C@H]1CCN(c2nnc(-c3cnc(-c4ccc5cc(C#N)cnn45)cc3NC(C)C)s2)C[C@H]1O` [Example 62, N-((3R,4S)-1-(5-(6-(3-cyanopyrrolo[1,2-b]pyridazin-7-yl)-4-(isopropylamino)pyridin-3-yl)-1,3,4-thiadiazol-2-yl)-3-hydroxypiperidin-4-yl)acetamide]: the pIC50 on IRAK4 enzyme is 9.42. In the assay with TNFα (setting [1]), the pEC50 is 7.90.

For `CC1(O)CCN(c2nnc(-c3cnc(-c4ccc5cc(C#N)cnn45)cc3NC3COC3)s2)CC1` [Example 187, 7-(5-(5-(4-hydroxy-4-methylpiperidin-1-yl)-1,3,4-thiadiazol-2-yl)-4-(oxetan-3-ylamino)pyridin-2-yl)pyrrolo[1,2-b]pyridazine-3-carbonitrile], on IRAK4 enzyme, the pIC50 is 9.18. In addition, the pEC50 in the assay on TNFα (setting [1]) is 7.97.

In the case of `C[C@H](C#N)Nc1cc(-c2ccc3cc(C#N)cnn23)ncc1-c1nnc(N2CC3CC(C2)O3)s1` [Example 178, 7-(5-(5-(6-oxa-3-azabicyclo[3.1.1]heptan-3-yl)-1,3,4-thiadiazol-2-yl)-4-(((R)-1-cyanoethyl)amino)pyridin-2-yl)pyrrolo[1,2-b]pyridazine-3-carbonitrile], the pIC50 at IRAK4 enzyme was 9.35. The negative-log EC50 (pEC50) in the assay on TNFα (setting [2]) is 8.31.

Take `CC(C)Nc1cc(-c2ccc3cc(C#N)cnn23)ncc1-c1nnc(N2CC3(CCO3)C2)s1` [Example 293, 7-(5-(5-(1-oxa-6-azaspiro[3.3]heptan-6-yl)-1,3,4-thiadiazol-2-yl)-4-(isopropylamino)pyridin-2-yl)pyrrolo[1,2-b]pyridazine-3-carbonitrile]: at IRAK4 enzyme, the pIC50 is 8.82. The negative-log EC50 (pEC50) in the assay with TNFα (setting [1]) is 6.44.

Consider `CC(C)Nc1cc(-c2ccc3cc(C#N)cnn23)ncc1-c1nnc(CCC(C)(C)O)s1` [Example 31, 7-(5-(5-(3-hydroxy-3-methylbutyl)-1,3,4-thiadiazol-2-yl)-4-(isopropylamino)pyridin-2-yl)pyrrolo[1,2-b]pyridazine-3-carbonitrile], for which the pIC50 at IRAK4 enzyme (setting [3]) is > 9.00. The pEC50 in the assay with TNFα (setting [4]) was 8.30.

As to `CC(C)Nc1cc(-c2ccc3cc(C#N)cnn23)ncc1-c1nnc(-n2cccc2)s1` [Example 28, 7-(5-(5-(1H-pyrrol-1-yl)-1,3,4-thiadiazol-2-yl)-4-(isopropylamino)pyridin-2-yl)pyrrolo[1,2-b]pyridazine-3-carbonitrile], the pIC50 on IRAK4 enzyme (setting [3]) is 8.77. In addition, the pEC50 with TNFα (setting [4]) is 5.20.

Molecule `C[C@]1(O)CCN(c2nnc(-c3cnc(-c4ccc5cc(C#N)cnn45)cc3NC3CCOCC3)s2)C[C@@H]1F` [Example 204, 7-(5-(5-((3S,4S)-3-fluoro-4-hydroxy-4-methylpiperidin-1-yl)-1,3,4-thiadiazol-2-yl)-4-((tetrahydro-2H-pyran-4-yl)amino)pyridin-2-yl)pyrrolo[1,2-b]pyridazine-3-carbonitrile] gave a pIC50 at IRAK4 enzyme of 9.46. In addition, the negative-log EC50 (pEC50) with TNFα (setting [1]) is 8.46.

Consider `CC(=O)N[C@H]1CC[C@H](c2nnc(-c3cnc(-c4ccc5cc(C#N)cnn45)cc3N[C@H]3CC[C@@H](O)CC3)s2)CC1` [Compound 244, N-((1R,4r)-4-(5-(6-(3-cyanopyrrolo[1,2-b]pyridazin-7-yl)-4-(((1s,4S)-4-hydroxycyclohexyl)amino)pyridin-3-yl)-1,3,4-thiadiazol-2-yl)cyclohexyl)acetamide], for which the pIC50 on IRAK4 enzyme (setting [5]) is 9.03. Moreover, in the assay on TNFα (setting [6]), the pEC50 was 8.04.

For the molecule `CC(C)Nc1cc(-c2ccc3cc(C#N)cnn23)ncc1-c1nnc(C(=O)N2CCOCC2)s1` [Example 18, 7-(4-(isopropylamino)-5-(5-(morpholine-4-carbonyl)-1,3,4-thiadiazol-2-yl)pyridin-2-yl)pyrrolo[1,2-b]pyridazine-3-carbonitrile], the pIC50 on IRAK4 enzyme (setting [3]) is 6.00. For the same molecule, the pEC50 with TNFα (setting [4]) is < 5.00.

Regarding `CC(C)Nc1cc(-c2ccc3cc(C#N)cnn23)ncc1-c1nnc(CO)s1` [Example 5, 7-(5-(5-(hydroxymethyl)-1,3,4-thiadiazol-2-yl)-4-(isopropylamino)pyridin-2-yl)pyrrolo[1,2-b]pyridazine-3-carbonitrile], the pIC50 on IRAK4 enzyme (setting [3]) is 9.00. Moreover, the negative-log EC50 (pEC50) in the assay on TNFα (setting [4]) is 7.12.

The molecule `C[C@]1(O)CCN(c2nnc(-c3cnc(-c4ccc5cc(C#N)cnn45)cc3NC3COC3)s2)C[C@@H]1F` [Example 207, 7-(5-(5-((3S,4S)-3-fluoro-4-hydroxy-4-methylpiperidin-1-yl)-1,3,4-thiadiazol-2-yl)-4-(oxetan-3-ylamino)pyridin-2-yl)pyrrolo[1,2-b]pyridazine-3-carbonitrile] had a pIC50 against IRAK4 enzyme of 9.16. Besides, in the assay with TNFα (setting [1]), the pEC50 is 8.10.

Take `CC(=O)N[C@H]1CCN(c2nnc(-c3cnc(-c4ccc5cc(C#N)cnn45)cc3NC3(C)COC3)s2)CC1(F)F` (single isomer, unassigned; isomer 2) [147 Isomer 2]: the pIC50 on IRAK4 enzyme (setting [5]) was 9.21. In addition, the pEC50 in the assay on TNFα (setting [6]) was 7.62.

Regarding `CNC(=O)c1nnc(-c2cnc(-c3ccc4cc(C#N)cnn34)cc2NC(C)C)s1` [Example 15, 5-(6-(3-cyanopyrrolo[1,2-b]pyridazin-7-yl)-4-(isopropylamino)pyridin-3-yl)-N-methyl-1,3,4-thiadiazole-2-carboxamide], the pIC50 on IRAK4 enzyme (setting [3]) was > 9.00. Further, in the assay on TNFα (setting [4]), the pEC50 was 5.47.

For the molecule `CC(C)Nc1cc(-c2ccc3cc(C#N)cnn23)ncc1-c1nnc(N2CCC(C#N)CC2)s1` [Example 310, 7-(5-(5-(4-cyanopiperidin-1-yl)-1,3,4-thiadiazol-2-yl)-4-(isopropylamino)pyridin-2-yl)pyrrolo[1,2-b]pyridazine-3-carbonitrile], the pIC50 on IRAK4 enzyme was 9.18. Further, the negative logarithm of the EC50 (pEC50) in the assay on TNFα (setting [1]) was 7.59.

`CC(=O)N[C@H]1CCCN(C(=O)c2nnc(-c3cnc(-c4ccc5cc(C#N)cnn45)cc3NC(C)C)s2)C1` [Example 48, (S)-N-(1-(5-(6-(3-cyanopyrrolo[1,2-b]pyridazin-7-yl)-4-(isopropylamino)pyridin-3-yl)-1,3,4-thiadiazole-2-carbonyl)piperidin-3-yl)acetamide] gave a pIC50 at IRAK4 enzyme of 8.72. In addition, the pEC50 with TNFα (setting [1]) is 7.43.

At IRAK4 enzyme, `N#Cc1cnn2c(-c3cc(NC4CCOCC4)c(-c4nnc(N5CC6CC(C5)O6)s4)cn3)ccc2c1` [Example 177, 7-(5-(5-(6-oxa-3-azabicyclo[3.1.1]heptan-3-yl)-1,3,4-thiadiazol-2-yl)-4-((tetrahydro-2H-pyran-4-yl)amino)pyridin-2-yl)pyrrolo[1,2-b]pyridazine-3-carbonitrile] showed a pIC50 of 9.39. In addition, in the assay with TNFα (setting [2]), the pEC50 was 8.08.

Turning to `CC(=O)N[C@@H]1CCCN(C(=O)c2nnc(-c3cnc(-c4ccc5cc(C#N)cnn45)cc3NC(C)C)s2)C1` [Example 49, (R)-N-(1-(5-(6-(3-cyanopyrrolo[1,2-b]pyridazin-7-yl)-4-(isopropylamino)pyridin-3-yl)-1,3,4-thiadiazole-2-carbonyl)piperidin-3-yl)acetamide], the negative-log IC50 (pIC50) against IRAK4 enzyme is 8.76. Moreover, the negative logarithm of the EC50 (pEC50) with TNFα (setting [1]) is 7.46.

On IRAK4 enzyme, `CC(=O)NC1CC2(C1)CN(c1nnc(-c3cnc(-c4ccc5cc(C#N)cnn45)cc3NC(C)C)s1)C2` [Compound 231, N-(2-(5-(6-(3-cyanopyrrolo[1,2-b]pyridazin-7-yl)-4-(isopropylamino)pyridin-3-yl)-1,3,4-thiadiazol-2-yl)-2-azaspiro[3.3]heptan-6-yl)acetamide] gave a pIC50 of 8.93. Besides, in the assay with TNFα (setting [1]), the pEC50 was 7.65.

`CC1(Nc2cc(-c3ccc4cc(C#N)cnn34)ncc2-c2nnc(N3C[C@H]4CC[C@@H](C3)O4)s2)COC1` [Example 145, 7-(5-(5-((1R,5S)-8-oxa-3-azabicyclo[3.2.1]octan-3-yl)-1,3,4-thiadiazol-2-yl)-4-((3-methyloxetan-3-yl)amino)pyridin-2-yl)pyrrolo[1,2-b]pyridazine-3-carbonitrile] gave a pIC50 against IRAK4 enzyme of 9.48. For the same molecule, in the assay with TNFα (setting [1]), the pEC50 is 8.25.
